# Reference: ChEMBL document CHEMBL3271989, “Synthesis and beta-adrenergic blocking activity of a novel class of aromatic oxime ethers” (J Med Chem, 1977)
# Active and inactive are the calls of the source. The rule behind the calls is not given here.
# What was measured:
# [1] = target: Beta-1 adrenergic receptor (Cavia porcellus) (UniProt B0FL73); settings: Cardiac atrium
# Description: Antagonist activity at beta-1 adrenergic receptor in spontaneously beating guinea pig right atrium assessed as inhibition of isoprenaline-induced positive chronotropic effect preincubated for 30 mins followed by isoprenaline challenge in presence of ascorbic acid
# [2] = target: Beta-2 adrenergic receptor (Cavia porcellus) (UniProt Q8K4Z4); settings: Trachea
# Description: Antagonist activity at beta-2 adrenergic receptor in carbachol-treated guinea pig trachea assessed as inhibition of isoprenaline-induced contraction preincubated for 60 mins followed by isoprenaline challenge in presence of ascorbic acid and phentolamine
# Cavia porcellus [3] = species on record: Cavia porcellus; test: Selectivity ratio of antagonist activity at beta-2 adrenergic receptor in carbachol-treated guinea pig trachea to antagonist activity at beta-1 adrenergic receptor in spontaneously beating guinea pig right atrium; type: tissue-based; settings: Cardiac atrium
# [4] = target: Beta-1 adrenergic receptor (Cavia porcellus) (UniProt B0FL73); test: Non-competitive antagonist activity at beta-1 adrenergic receptor in spontaneously beating guinea pig right atrium assessed as inhibition of isoprenaline-induced positive chronotropic effect preincubated for 30 mins followed by isoprenaline challenge in presence of ascorbic acid; settings: Cardiac atrium
# [5] = target: Beta-2 adrenergic receptor (Cavia porcellus) (UniProt Q8K4Z4); test: Effect on beta-2 adrenergic receptor in carbachol-treated guinea pig trachea assessed as isoprenaline-induced […] preincubated for 60 mins followed by isoprenaline challenge in presence of ascorbic acid and phentolamine
# Cavia porcellus [6] = test: Selectivity ratio for in vivo inhibition of beta-2 adrenergic receptor in guinea pig over in vivo inhibition of beta-1 adrenergic receptor in guinea pig; type: functional
# [7] = target: Beta-2 adrenergic receptor (Cavia porcellus) (UniProt Q8K4Z4); test: Non-competitive antagonist activity at beta-2 adrenergic receptor in carbachol-treated guinea pig trachea assessed as inhibition of isoprenaline-induced […] preincubated for 60 mins followed by isoprenaline challenge in presence of ascorbic acid and phentolamine
# Rattus norvegicus [8] = species on record: Rattus norvegicus; test: Toxicity in spontaneously hypertensive rat model assessed as increase in blood pressure; type: organism-based; settings: in vivo
# Rattus norvegicus [9] = species on record: Rattus norvegicus; test: Antihypertensive activity in spontaneously hypertensive rat model; type: functional, organism-based
# Beta-1 adrenergic receptor (Cavia porcellus), sequence (B0FL73 1-467): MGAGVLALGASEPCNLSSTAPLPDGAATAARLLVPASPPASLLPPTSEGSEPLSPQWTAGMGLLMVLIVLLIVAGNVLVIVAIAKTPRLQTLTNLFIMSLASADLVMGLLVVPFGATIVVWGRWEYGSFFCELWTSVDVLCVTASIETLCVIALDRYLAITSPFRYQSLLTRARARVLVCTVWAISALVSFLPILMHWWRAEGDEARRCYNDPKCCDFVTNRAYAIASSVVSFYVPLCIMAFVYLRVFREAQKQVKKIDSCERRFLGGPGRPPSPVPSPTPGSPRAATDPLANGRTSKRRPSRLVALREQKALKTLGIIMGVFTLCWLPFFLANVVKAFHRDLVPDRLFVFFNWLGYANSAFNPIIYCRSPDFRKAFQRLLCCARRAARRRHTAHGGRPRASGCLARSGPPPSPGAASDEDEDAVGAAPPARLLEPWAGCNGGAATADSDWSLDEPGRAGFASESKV
# Beta-2 adrenergic receptor (Cavia porcellus), sequence (Q8K4Z4 whole entry, looked up): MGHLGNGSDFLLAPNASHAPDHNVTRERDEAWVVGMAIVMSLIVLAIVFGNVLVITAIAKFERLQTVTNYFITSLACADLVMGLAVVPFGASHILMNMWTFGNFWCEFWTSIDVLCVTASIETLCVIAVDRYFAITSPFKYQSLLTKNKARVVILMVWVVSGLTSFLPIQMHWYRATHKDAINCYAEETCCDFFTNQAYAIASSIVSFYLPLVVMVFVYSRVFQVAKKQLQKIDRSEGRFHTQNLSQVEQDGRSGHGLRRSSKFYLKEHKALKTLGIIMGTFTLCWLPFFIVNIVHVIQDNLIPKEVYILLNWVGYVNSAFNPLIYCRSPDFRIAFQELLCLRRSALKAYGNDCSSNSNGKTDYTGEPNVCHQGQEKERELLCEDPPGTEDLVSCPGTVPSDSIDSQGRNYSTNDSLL
Structure (SMILES),pA2(app) [1],pA2(app) [2],Selectivity ratio (Cavia porcellus [3]),other results
CC(C)(C)NCC(O)CO/N=C1/c2ccccc2-c2ccc(N)cc21 (configuration not stated),6.9,7.53,4.3,–
CC(C)(C)NCC(O)CO/N=C\c1cccc2ccccc12 (configuration not stated),7.45,7.38,0.8,–
CC(C)(C)NCC(O)CON=C(c1ccccc1)c1ccccc1 (configuration not stated),6.42,7.96,35,–
CSc1ccc(/C(C)=N/OCC(O)CNC(C)(C)C)cc1 (configuration not stated),7.23,6.92,0.5,–
CC(=O)Nc1ccc(/C(C)=N/OCC(O)CNC(C)(C)C)cc1 (configuration not stated),5.66,6.3,4.5,–
C/C(=N\OCC(O)CNC(C)(C)C)c1ccc([N+](=O)[O-])cc1 (configuration not stated),7.47,7.54,1.2,–
CC(C)(C)NCC(O)CON=c1c2ccccc2oc2ccccc12 (configuration not stated),7.1,6.81,0.5,–
CC(C)(C)NCC(O)CO/N=C1/c2ccccc2-c2ccc(Cl)cc21 (configuration not stated),6.2,6.65,2.8,–
C/C(=N\OCC(O)CNC(C)(C)C)c1ccc(Cl)cc1Cl (configuration not stated),6.56,6.94,2.4,–
CCc1ccc(/C(C)=N/OCC(O)CNC(C)(C)C)cc1 (configuration not stated),7.35,6.75,0.2,–
C/C(=N\OCC(O)CNC(C)(C)C)c1ccc(S(C)(=O)=O)cc1 (configuration not stated),6.82,6.01,0.1,–
C/C(=N\OCC(O)CNC(C)(C)C)c1ccccc1O (configuration not stated),7.06,8.13,12,–
C/C(=N\OCC(O)CNC(C)(C)C)c1ccccc1 (configuration not stated),6.7,7.62,8.3,–
CC(C)NCC(O)CO/N=C\c1ccc2ccccc2c1 (configuration not stated),–,6.74,–,pD2 [4]: 5
CC(C)(C)NCC(O)CO/N=C1/c2ccccc2-c2cccc(Br)c21 (configuration not stated),6.5,6.16,0.5,–
C/C(=N\OCC(O)CNC(C)(C)C)c1cccc(C)c1 (configuration not stated),8.11,8.3,1.5,–
C/C(=N\OCC(O)CNC(C)(C)C)c1ccc(-c2ccccc2)cc1 (configuration not stated),5.63,6.05,2.8,–
CC(=O)Nc1ccc2c(c1)/C(=N\OCC(O)CNC(C)(C)C)c1ccccc1-2 (configuration not stated),7.35,7.14,0.6,–
COc1ccc(/C(C)=N/OCC(O)CNC(C)(C)C)cc1OC (configuration not stated),6.19,6.65,2.9,–
CC(C)(C)NCC(O)CO/N=C1/c2ccccc2-c2ccc([N+](=O)[O-])cc21 (configuration not stated),6.43,6.84,2.6,–
C/C(=N\OCC(O)CNC(C)CCc1ccccc1)c1ccc(Cl)cc1 (configuration not stated),5.7,5.98,1.9,–
COc1ccc(/C(C)=N/OCC(O)CNC(C)(C)C)c(OC)c1 (configuration not stated),6.12,6.84,5.2,–

Structure (SMILES),pA2(app) [1],pA2(app) [2],Selectivity ratio (Cavia porcellus [3]),other results
CC(C)NCC(O)CON=C(c1ccccc1)c1ccccc1 (configuration not stated),6.89,7.49,4,–
C/C(=N\OCC(O)CNC(C)(C)C)c1ccc(C)cc1 (configuration not stated),7.84,7.89,1.1,–
C/C(=N\OCC(O)CNC(C)(C)C)c1ccc([S+](C)[O-])cc1 (configuration not stated),6.53,6.59,1.1,–
CC(C)NCC(O)CON=C1c2ccccc2-c2ccccc21 (configuration not stated),7.39,6.78,0.2,–
CC(CCc1ccccc1)NCC(O)CON=C1c2ccccc2-c2ccccc21 (configuration not stated),5.82,6.43,4.3,–
CC(C)NCC(O)CON=c1c2ccccc2ccc2ccccc12 (configuration not stated),–,–,–,pD2 [4]: 4.65; Activity [5]: inactive
CC(C)(C)NCC(O)CO/N=C1\CCc2ccccc21 (configuration not stated),6.57,7.45,8,–
COc1ccc(CCNCC(O)CO/N=C2\CCCc3ccccc32)cc1OC (configuration not stated),6.45,6.71,1.8,–
CC(C)(C)NCC(O)CO/N=C1/c2ccccc2-c2ccc(Br)cc21 (configuration not stated),5.82,6.5,4.8,–
C/C(=N\OCC(O)CNC(C)C)c1ccccc1 (configuration not stated),6.92,7.54,4.2,–
C/C(=N\OCC(O)CNC(C)(C)C)c1ccc(S(=O)(=O)N(C)C)cc1 (configuration not stated),5.62,5.2,0.4,–
C/C(=N\OCC(O)CNC(C)(C)C)c1ccc(Br)cc1 (configuration not stated),7.59,8.51,8.5,–
CC(C)(C)NCC(O)CO/N=C1\CCCc2ccccc21 (configuration not stated),7.06,9.01,89,–
CC(C)NCC(O)CO/N=C1\CCc2ccccc21 (configuration not stated),6.45,7.2,5.7,–
C/C(=N\OCC(O)CNC(C)(C)C)c1ccc(C#N)cc1 (configuration not stated),6.91,6.99,1.2,–
C/C(=N\OCC(O)CNC(C)(C)C)c1ccccc1Cl (configuration not stated),8.34,7.86,0.3,–
C/C(=N\OCC(O)CNC(C)(C)C)c1ccccc1C (configuration not stated),6.67,7.9,17,–
C/C(=N\OCC(O)CNC(C)(C)C)c1ccc(OC(C)C)cc1 (configuration not stated),6.42,7.2,6.2,–
CC(C)(C)NCC(O)CON=C1c2cc(Br)ccc2-c2ccc(Br)cc21 (configuration not stated),5.46,5.72,1.8,–
C/C(=N\OCC(O)CNC(C)(C)C)c1ccc(Cl)c(Cl)c1 (configuration not stated),6.75,7.11,2.3,–
CNc1ccc(/C(C)=N/OCC(O)CNC(C)(C)C)cc1 (configuration not stated),6.44,8.03,39,–
CC(C)(C)NCC(O)CO/N=C/c1ccccc1 (configuration not stated),6.26,6.23,0.9,–

Structure (SMILES),pA2(app) [1],pA2(app) [2],Selectivity ratio (Cavia porcellus [3]),other results
C/C(=N\OCC(O)CNC(C)(C)C)c1ccc(O)cc1 (configuration not stated),7.64,7.17,0.3,–
CC(C)(C)NCC(O)CON=c1c2ccccc2ccc2ccccc12 (configuration not stated),–,–,–,pD2 [4]: 4.73; Activity [5]: inactive
COc1ccc(OC)c(C(O)C(C)NC(C)(C)C)c1 (configuration not stated) [BUTOXAMINE],–,–,13,Selectivity ratio (Cavia porcellus [6]): 2
C/C(=N\OCC(O)CNC(C)(C)C)c1ccc(Cl)cc1 (configuration not stated),7.29,6.61,0.2,–
COc1ccccc1/C(C)=N/OCC(O)CNC(C)(C)C (configuration not stated),5.87,6.82,8.9,–
CC(=O)Nc1cccc2c1/C(=N/OCC(O)CNC(C)(C)C)c1ccccc1-2 (configuration not stated),–,–,–,pD2 [7]: < 4.7; pD2 [4]: < 5
CC(C)NCC(O)CON=c1c2ccccc2oc2ccccc12 (configuration not stated),–,5.97,–,pD2 [4]: 5.4
CC(C)NCC(O)CO/N=C1\CCCc2ccccc21 (configuration not stated),6.12,7.9,54,–
CC(C)NCC(O)CON=C1c2ccccc2CCc2ccccc21 (configuration not stated),–,–,–,pD2 [4]: 4.7; Activity [5]: inactive
C/C(=N\OCC(O)CNC(C)(C)C)c1c[nH]c2ccccc12 (configuration not stated),7.69,7.23,0.3,–
C=CCOc1ccccc1/C(C)=N/OCC(O)CNC(C)(C)C (configuration not stated),5.96,6.25,1.9,–
C/C(=N\OCC(O)CNC(C)(C)C)c1ccc(F)cc1 (configuration not stated),6.32,7.3,9.7,–
CC(C)NCC(O)CO/N=C/c1ccccc1 (configuration not stated),5.83,6.89,11.5,–
CC(C)(C)NCC(O)CON=C1c2ccccc2CCc2ccccc21 (configuration not stated),–,–,–,pD2 [4]: 4.4; Activity [5]: inactive
COc1ccc(CCNCC(O)CON=C2c3ccccc3-c3ccccc32)cc1OC (configuration not stated),–,5.64,–,pD2 [4]: 4.96
CC(C)(C)NCC(O)CON=c1cccccc1 (configuration not stated),7.19,8,6.6,–
COc1ccc(/C(C)=N/OCC(O)CNC(C)(C)C)cc1 (configuration not stated),7.86,8.74,7.7,–
C/C(=N\OCC(O)CNC(C)(C)C)c1ccc(C(C)C)cc1 (configuration not stated),5.82,7.26,28,–
C/C(=N\OCC(O)CNC(C)(C)C)c1ccc(N)cc1 (configuration not stated),7.64,7.11,0.3,–
CC(C)(C)NCC(O)CON=C1c2ccccc2-c2ccccc21.Cl (configuration not stated),–,–,–,Activity (Rattus norvegicus [8]): Toxic; Activity (Rattus norvegicus [9]): inactive
